Compound `CC1=NCC(=S)Nc2ccc(Cl)cc21` has a melting point of 201 to 203 °C. `COc1cc(C(=O)/C=C/c2ccc3c(c2)OCO3)cc(OC)c1OC` gave a melting point of 135 °C. Work on `CN1CCN(Cc2cccc(OCc3ccc4ccccc4n3)c2)CC1` yielded a melting point of 47 to 49 °C. `C[C@@H](C(=O)O)N(C)C(=O)CCSSc1ccc([N+](=O)[O-])cc1` gave a melting point of 74 to 77 °C. In the case of `CN1C(=O)C2CCCN2Cc2ccccc21` (stereo not drawn), the melting point is reported as 120 to 122 °C. `O=[N+]([O-])c1c(Cl)c(Cl)cc2nc(Cl)c(Cl)nc12` showed a melting point of 118 to 120 °C. With `CC(O)(CNC(=S)Nc1ccc(Br)cc1)C(=O)Nc1ccc([N+](=O)[O-])c(C(F)(F)F)c1` (stereo not drawn) the melting point was 192 to 195 °C. `CCn1nnc(-c2ccc(C(=O)N[C@@H]3CCCC[C@@H]3c3ccc(OC)c(OC)c3)cc2)n1` showed a melting point of 188 to 192 °C. With `COCC1CCCN1Cc1ccc2cc(NC(=O)c3ccc(-c4ccc(Cl)cc4)cc3)ccc2n1` (stereo not drawn) the melting point was 172 to 174 °C. `Cc1sc2nc3ccc(C(N)=O)cn3c(=O)c2c1C` gave a melting point of 361 to 363 °C. `CC(C)n1cc(-c2ccc(F)cc2)nn1` gave a melting point of 54 to 55 °C. `O=C(Nc1ccc(Br)c(C(F)(F)F)c1)c1ccccc1NCc1ccncc1` gave a melting point of 123 to 124 °C. `CCCCc1nc2ccn(Cc3ccc(C(=O)O)cc3)c(=O)c2n1Cc1ccc(-c2ccccc2-c2nnn[nH]2)cc1` gave a melting point of over 300 °C. With `O=c1ccc2nc3ccccc3sc-2c1` the melting point was 157 to 159 °C. Work on `CNC(=O)ON=C1CCOc2ccccc21` yielded a melting point of 123 to 126 °C. For `CCCCCN1Cc2cccc(S(N)(=O)=O)c2S1(=O)=O`, the melting point was 156 to 160 °C. Compound `Cc1cccc(-c2ccc(-c3cnn(Cc4ccc([N+](=O)[O-])cc4)c(=O)c3-c3ccc(F)cc3)cc2)c1S(=O)(=O)O` has a melting point of 183 to 184 °C. Compound `CC(C)(C)c1cc(I)c(O)c(C=NO)c1` has a melting point of 154 to 156 °C. Compound `COc1ccc(OCCCN2CCN(c3ccc(Cl)nn3)CC2)cc1` has a melting point of 123 °C. `COC(=O)c1ccc(OCCCCCCc2cccc(OCc3ccccc3)c2OCc2ccccc2)c(Cl)c1` showed a melting point of 68 to 69 °C. With `COc1ccc(Nc2cnc3c(NCc4ccccc4)nc(NCCO)nc3c2)cc1` the melting point was 126 to 127 °C. `Cc1c(Cl)sc2[nH]c(=O)c(-c3ccccc3)c(O)c12` gave a melting point of 105 to 107 °C. For `CCc1cc(O)c(C(C)=O)c(O)c1`, the melting point was 121 to 123 °C. `CCOC(=O)c1cc2cc(-c3ccccc3OC)ccc2nn1` showed a melting point of 143 to 145 °C. Compound `COc1cccc(Oc2c(NS(=O)(=O)c3ccc(C(C)(C)C)cc3)ncnc2SCCO)c1` has a melting point of 150 °C. With `COc1ccc(-c2nc(SC)sc2-c2ccc(OC)cc2)cc1` the melting point was 102 to 104 °C. `O=S(Cc1ccccn1)c1cnc2ccccc2n1` (stereo not drawn) showed a melting point of 117 to 122 °C. Work on `CCC(C)(C)Nc1c(NCc2cc3cc(C#N)ccc3o2)c(=O)c1=O` yielded a melting point of 171 to 173 °C. For `NCC1(O)c2ccccc2CCc2ccccc21`, the melting point was 147 to 149 °C. Compound `O=S(=O)(c1ccccc1)c1nccc2c1CCCC2` has a melting point of 109 to 112 °C. In the case of `CN1CCN2C(=O)Nc3ccc(Cl)cc3C12c1ccccc1` (stereo not drawn), the melting point is reported as 270 to 271 °C. With `COc1ccc(CCNC(=O)OC(C)(C)C)cc1O` the melting point was 100 to 101 °C. `Oc1ccc(-c2noc3cc(O)ccc23)c(O)c1` showed a melting point of 300 to 305 °C. Work on `COc1ccc(C2=NN(C3CCCCCC3)C(=O)[C@H]3CC=CC[C@@H]23)c2c1OC(C)(C)C2` (relative stereo) yielded a melting point of 114 to 115 °C. Work on `C=C(C)c1ccc(CNC(=O)N2CCN(c3ncnc4cc(OC)c(OC)cc34)CC2)cc1` yielded a melting point of 123 to 124 °C. Compound `C[C@@H](c1ccc(-c2[nH]nnc2Cl)cc1)[C@](O)(Cn1cncn1)c1ccc(F)cc1F` has a melting point of 113 to 115 °C. In the case of `CC(C)(C)C(NC(=O)c1ccc(Cl)cc1)Nc1c(Nc2ccncc2)c(=O)c1=O` (stereo not drawn), the melting point is reported as 244 to 246 °C. In the case of `COC(=O)c1cc(/C=N/O)ccc1[N+](=O)[O-]`, the melting point is reported as 116 °C. For `COc1cc(CCCCCCC2OC(=O)NC2=O)ccc1OCc1nc(-c2ccccc2)oc1C` (stereo not drawn), the melting point was 113 to 117 °C. For `Cc1ccccc1NC(=O)C=CC=CC1(F)CC1c1ccc(Br)c(Br)c1` (stereo not drawn), the melting point was 174 to 176 °C. With `COc1cn(-c2ccc(-n3cc(Cl)cn3)cc2F)nc(-c2ccnn2-c2ccccc2)c1=O` the melting point was 190 to 192 °C. `O=C(NC(=O)c1c(F)cccc1F)Nc1cc(Cl)c(S(=O)C(F)(F)C(F)F)cc1Cl` (stereo not drawn) showed a melting point of 216 to 220 °C. For `COC(=O)Cc1cc(Oc2nn(C)c(C(F)(F)F)c2Cl)ccc1[N+](=O)[O-]`, the melting point was 112 to 115 °C. With `N#Cc1ccc(C(=C2CCCCCC2)c2nc[nH]n2)cc1` the melting point was 79 to 80 °C. With `C#CCNC1=Nc2c(c(C)nn2C)C(c2ccccc2)=NC1` the melting point was 193 to 195 °C. Work on `Cc1noc(CCCCCCCOc2ccc(C3=NCCO3)cc2Cl)c1CO` yielded a melting point of 53 to 54 °C. Work on `O=C(O)Cc1cc(Br)c(S(=O)(=O)c2ccc(O)c(C3CCCC3)c2)c(Br)c1` yielded a melting point of 171 to 174 °C. `COc1ccc(C)cc1OCCO` gave a melting point of 42 to 43 °C. `CCOC(=O)c1cnn2c1CCC2` showed a melting point of 35 to 37 °C. `CCCOc1ccc(CCCCCC(=O)O)cc1` showed a melting point of 42 to 43 °C. `CS(=O)(=O)Nc1cc(C(O)CNC2CCN(c3ccc(CC4SC(=O)N(CC(=O)O)C4=O)cc3)CC2)ccc1O` (stereo not drawn) showed a melting point of 158 to 160 °C. In the case of `CCCC1Cc2c(c(C)c(C)c3oc(C(=O)O)cc23)C1=O` (stereo not drawn), the melting point is reported as 287 °C. `CCOP(=O)(OCC)C(CSC(OC(C)=O)OC(=O)N1CCN(c2cc3c(cc2F)c(=O)c(C(=O)O)cn3CC)CC1)P(=O)(OCC)OCC` (stereo not drawn) gave a melting point of 89 to 90 °C. Compound `CCOC(=O)C(F)Cc1ccc(OCCN(C)c2nc3ccccc3o2)cc1` (stereo not drawn) has a melting point of 65 to 67 °C. For `CC(C)(C)c1ccc(OCC(=O)NCc2ccc(NS(C)(=O)=O)c(O)c2)cc1`, the melting point was 112 °C. Work on `CCOC(=O)C=CC=CCCC(C)C1CCC2C3CCC4CC(OC(C)=O)CCC4(C)C3CC(OC(C)=O)C12C` (stereo not drawn) yielded a melting point of 129 to 131 °C. With `O=C(NC(=O)c1c(F)cccc1F)Nc1ccc(Br)cn1` the melting point was 232 to 235 °C. With `Cc1cc(C2=NOC(c3cc(Cl)cc(Cl)c3)(C(F)(F)F)C2)ccc1C(=O)O` (stereo not drawn) the melting point was 146 to 148 °C. `OC1CCN(c2nnc(Cl)c3ccccc23)CC1` showed a melting point of 139 to 142 °C. Work on `Cc1cc2cc(CN3CCC(C(=O)N4CCCCC4)CC3)cnc2cc1NC(=O)c1ccc(-c2ccc(F)cc2)cc1` yielded a melting point of 250 °C. `CC(C)NCC(O)COc1cccc(C2=NNC(=O)CC2)c1` (stereo not drawn) gave a melting point of 137 to 141 °C. `CC(C)(Sc1cc(C(C)(C)C)c(O)c(C(C)(C)C)c1)Sc1cc(C(C)(C)C)c(OCC[C@H](O)CO)c(C(C)(C)C)c1` gave a melting point of 110 to 112 °C. With `CNc1nc2ccccc2n(-c2ccc(Cl)cc2)c1=O` the melting point was 217 to 220 °C. Compound `O=C1CCC(c2ccccc2F)=NN1` has a melting point of 119 to 121 °C. Compound `CCOCCNCCOc1ccc(NC(=O)c2ccccc2NS(C)(=O)=O)cc1` has a melting point of 171 to 172 °C. For `O=c1c(-c2cccc(F)c2)c(CNc2ncnc3[nH]cnc23)oc2ccc(F)cc12`, the melting point was 229 to 232 °C. Compound `CCOC(=O)c1cc(=O)c(O)c(-c2ccc(Cl)cc2)o1` has a melting point of 157 to 159 °C. In the case of `N#CCCC(CCC#N)(CCC#N)[N+](=O)[O-]`, the melting point is reported as 114 °C. Compound `COc1cccc2c1C1CN(C)CCN1c1ccccc1C2O` (stereo not drawn) has a melting point of 217 °C. `Cc1ccc(S(=O)(=O)NC[C@H](F)Cc2ccccc2)cc1` showed a melting point of 130 to 133 °C. For `O=C1NC(=O)C(N(Cc2ccc(Br)cc2)c2ccc(CCNCC(O)COc3ccc(OCc4ccccc4)cc3)cc2)S1` (stereo not drawn), the melting point was 50 to 52 °C. In the case of `CC(C)(S)C(O)(Cn1cncn1)c1ccc(F)cc1F` (single isomer, unassigned; (-)), the melting point is reported as 105 °C. For `COc1ccc(CCNC(=O)Cc2ccc(C(=O)c3ccccc3)cc2)cc1OC`, the melting point was 113 to 114 °C. `Fc1ccc(NN=Cc2cccs2)cc1` gave a melting point of 138 to 140 °C. `Cc1ccc(S(=O)(=O)Nc2nc(C)c(C(=O)NCc3ccccc3)s2)cc1` showed a melting point of 242 to 245 °C. `CC(OC(=O)Nc1ccc(-c2ncn(-c3ccc(OC(F)(F)F)cc3)n2)cc1)C(F)(F)C(F)(F)F` (stereo not drawn) gave a melting point of 171 to 173 °C. For `Cn1cc(-c2cccc(C(F)(F)F)c2)c(=O)c(-c2ccccc2Br)c1`, the melting point was 197 to 199 °C. For `COc1ccc2c(-c3ccccn3)noc2c1Cl`, the melting point was 164 to 166 °C. With `Cc1cc(S(=O)(=O)Nc2cc(F)c(Oc3cnc4ccccc4c3)c(Cl)c2)c(Cl)cc1Cl` the melting point was 187 °C. Compound `Nc1ccc(CO)c(Nc2nccc(-c3cccnc3)n2)c1` has a melting point of 213 to 215 °C. In the case of `CCOC(=O)CCCN(C(=O)CC)C(c1ccccc1)c1ccccc1`, the melting point is reported as 83 to 85 °C. `O=C1NCc2ccccc2N1C1CCN(Cc2ccccc2)CC1` showed a melting point of 120 °C. Compound `COCCOCOc1ccc2cc(C(=O)CNCc3cccc(-c4ccc(Nc5ccccc5C(=O)O)cc4)c3)ccc2c1` has a melting point of 72 °C. With `O=C1C(CC23CC(c4ccccc42)c2ccccc23)OCCN1Cc1ccccc1` (stereo not drawn) the melting point was 155 to 156 °C. In the case of `CCc1[nH]n(C2CCCC2)c2nc(-c3ccc(OC)c(OCCN4CCOCC4)c3)nc(=O)c1-2`, the melting point is reported as 205 to 206 °C. Compound `CC1C(=O)CCS1(=O)=O` (stereo not drawn) has a melting point of 83 to 85 °C. Work on `CC(C)(C)c1cc(CNn2ccnc2N2CCOCC2)cc(C(C)(C)C)c1O` yielded a melting point of 161 to 163 °C. Compound `COc1cc([N+](=O)[O-])c2ncccc2c1OCC(F)(F)F` has a melting point of 109 to 115 °C. Compound `COC1CC2C3CCC4=CC(=O)CCC4(C)C3(F)CCC2(C)C1(OC(C)=O)C(=O)CCl` (stereo not drawn) has a melting point of 241 to 244 °C. Compound `Cc1cc2c(NCCc3cccc(C(F)(F)F)c3)ncnc2o1` has a melting point of 119 °C. For `CCOCc1nc2c(N(Cc3ccccc3)Cc3ccccc3)nc(Cl)c(C)c2n1N`, the melting point was 127 to 129 °C. Compound `CNC(=O)c1cnc(OCC(O)CNC(C)C)c(Cl)c1` (stereo not drawn) has a melting point of 130 to 132 °C. `O=C1CCC(c2ccc(NN=C(CO)c3ccccc3)cc2)=NN1` showed a melting point of 88 to 96 °C. In the case of `CCCn1c(COCC)nc2c(N)nc3ccc(OCC(=O)N4CCOCC4)cc3c21`, the melting point is reported as 196 to 197 °C. With `COc1cc2ncn(CCO)c(=O)c2cc1OC` the melting point was 130 °C. `Nc1ccc(CCO)c(N)c1` gave a melting point of 67 to 72 °C. `CCOC(=O)C1CSC(COc2ccc(OC)cc2)N1C(=O)CCl` (stereo not drawn) showed a melting point of 69 to 71 °C. In the case of `COc1ccc(C2=NN(C3CCN(C(=O)CCCOc4ccc5[nH]c(=O)ccc5c4)CC3)C(=O)[C@@H]3CC=CC[C@H]23)cc1OC`, the melting point is reported as 146 to 149 °C.

Reference: a melting point compilation (Tetko et al.; mined from patent text by program, amines drawn as free bases though some values may be those of a salt)
